Data on 7 molecules can be found in patent US20230130791A1, “A Combined Inhibition of EGFR and NRF2 in The Treatment of Malignant Glioma” (United States Government as represented by the Department …, priority 2020, published 2023).

Like-named read-outs stand apart in the source and are kept apart here.

The conditions of data set [1]: Mouse, cited from earlier work; for T½: parent drug (SASP for Sulfazaline).
For data set [2] the following is noted: Human, cited from earlier work.
Data set [3] has as its system GBM 12 or GBM6 cells. In words: ROS by MitoTracker Red CM-H2XRos. The format is cell-based, human. Conditions: erlotinib 1 uM, 24 hours. From the text:
Oxidative stress. Without wishing to be bound by theory, it is hypothesized that a sudden inhibition of EGFR signaling may increase oxidative stress and thus activate Nrf2. Previous studies have reported that EGFR inhibition leads to increased oxidative stress in lung and head and neck cancers (Orcutt, et al. (2011) Erlotinib-mediated inhibition of EGFR signaling induces metabolic oxidative stress through NOX4, Cancer Res 71, 3932-3940; Qian, et al. (2009) Clin Exp Pharmacol Physiol 36, 487-494). […] MitoTracker® Red CM-H2XRos (Fisher), a reduced nonfluorescent dye which is taken up passively by living cells, will be used. In the mitochondria, the dye is oxidized by superoxide, resulting in the emission of red fluorescence.
MitoTracker® Red CM-H2XRos (Fisher) was added to culture media at a concentration of 100 nM and incubated at 37° C. in a humidified incubator containing 5% CO2 for 30 minutes, the cells were then fixed in ice-cold methanol for 15 min at −20° C. followed by fluorescence microscopy.

For data set [4], the system named is p21. In words: p21 response to erlotinib (FIG. 12). Type of data set: cell-based. Conditions: in response to erlotinib. The source says:
p21. p21Cip1/WAF1 is a cyclin-dependent kinase inhibitor that regulates the cell cycle and acts as an antioxidant. The antioxidant function of p21 is mediated through stabilization of Nrf2. Thus, p21 is an interesting target for study.

Data set [5] relates to Mayo PDX GBM12 cells. The data set is described as follows: GSH/GSSG ratio by metabolite profiling (LC-MS/MS). The format is cell-based, human. Conditions: GBM12, 24 hour exposure, means±SD of four experiments.
Text: Determination of GSH levels will be undertaken at a Biochemistry Core Facility at UT Southwestern using metabolite profiling as previously described (Krall, et al. (2017) KEAP1 loss modulates sensitivity to kinase targeted therapy in lung cancer, Elife 6; Yuan, et al. (2012) Nat Protoc 7, 872-881). Samples will be analyzed by liquid chromatography tandem mass spectrometry (LC-MS/MS) using positive ion/negative ion polarity switching via selected reaction monitoring (SRM) on a 5500 QTRAP hybrid triple quadrupole mass spectrometer. Peaks will be integrated using MultiQuant 2.1 data analysis software (AB/SCIEX). The ratio of reduced intracellular glutathione to oxidized glutathione is a measure of oxidative stress.
Data are presented as means±SD of four experiments. […] GSH, reduced glutathione; GSSG, oxidized glutathione.
A short description of data set [6]: Toxicity in mice by gavage. Conditions: 50-100 mg/kg by gavage.
Data set [7] has as its system Keap1. In words: Cellular level of total Keap1. Type of data set: cell-based. Conditions: data not shown.
Data set [8] has as its system GBM12 cells. In words: RNAseq transcriptome and pathway analysis after erlotinib. The format is cell-based, human. The source says:
These q-values are corrected from p-values of the hypergeometric test, for multiple testing using the false discovery rate (FDR) method.

The test system of data set [9] is glioma cells. In words: Cell survival/viability assays in glioma cells (general statements). The format is cell-based. Conditions: for synergy with EGFR inhibition in cell survival assays: FIG. 5.
The conditions of data set [10]: in vivo; cited from earlier work.
Data set [11] relates to preclinical GBM models. In words: Preliminary orthotopic GBM experiments (FIG. 6, general statements). Type of data set: in vivo.
Data set [12] deals with GBM12 cells. The data set is described as follows: Alamarblue cell viability assay, GBM12. The format is cell-based, human. Conditions: GBM12, 72 hours; ML385 1 μm, INH 1 μm, sulfasalazine 5 μm. For orientation: The colour change of resazurin is a common sign of viable cells or microbes.
Text: ML385 (1 μm) and isoniazid (INH 1 μm) are Nrf2 inhibitors while Erastin and sulfasalazine (5 μm) are xCT inhibitors.
[13] abbreviates: parent drug (SASP for Sulfazaline).
The mark [14] stands for this setting: parent drug (SASP for Sulfazaline), dose per Table 5.
Where [15] appears, read: TNF inhibitor added to erlotinib.

Turning to `CN(C)C/C=C/C(=O)Nc1cc2c(Nc3ccc(F)c(Cl)c3)ncnc2cc1O[C@H]1CCOC1` [Afatinib, afatinib], the AUC entry in [1] (30 mg/kg QD) is “(2375 nM * hr”; in [2] (setting [13]), “(~1-2 μM * hr”; in data set [2] (setting [14]), 459 to 956 ng·h/mL. The highest concentration (Cmax) in data set [1] (30 mg/kg QD) was 417 nM; in data set [2] (setting [13]), 30 to 40 ng/mL; in data set [2] (read-out: Cmax), 60 to 80 nM. The T½ was 5 h in data set [1] and 60.3 h in data set [2] (setting [13]).

Turning to `C#Cc1cccc(Nc2ncnc3cc(OCCOC)c(OCCOC)cc23)c1` [Erlotinib, erlotinib], the “ROS (Mitotracker dye)” value in [3] is on record as “increase in ROS”. The p21 level entry in data set [4] is “not upregulated”. In addition, the AUC in [1] (12.5 mg/kg QD) is 27,042 ng * hr/ml; in data set [2] (setting [14]) it was 11,860 ng * hr/ml. For the same molecule, the Cmax in data set [1] (12.5 mg/kg QD) is listed as 3,513 ng/mL; in [2] (setting [13]), 872 ng/mL. The T½ in data set [1] was 3.1 h. Moreover, in [5], the GSH/GSSG was 68.5 ± 15.2. For the same molecule, the toxicity result in data set [6] was “without significant toxicity”. In addition, the “cellular level of total Keap1” value in [7] is on record as “not changed”. Also, the “Genes, Erl-induced pathway” value in data set [8] (Axon guidance) was found to be 42; in data set [8] (Ectoderm Differentiation), 35; in [8] (Glutathione conjugation), 14; in [8] (NRF2 pathway), 40; in [8] (Validated targets of C-MYC transcriptional repression), 23; in [8] (Validated transcriptional targets of Tap63 isoforms), 19. Also, the “genes upregulated by RNAseq” value in [8] (erlotinib 1 μM, 24 hours, GBM 12 cells) is 3635. Also, the “GPX3 expression in GBM” value in data set [8] (in response to erlotinib (FIG. 3)) is on record as “upregulated”.

On to `CCc1cc(C(N)=S)ccn1` [Ethionamide, ethionamide], for which, in data set [9] (erlotinib 1 μM and/or ethionamide 1 μM, 72 hours), the “synergy with EGFR inhibition, cell viability assay” value was “synergizes with EGFR inhibition”.

Consider `NNC(=O)c1ccncc1` [INH, isoniazid], for which the CNS penetration result in data set [10] is “highly CNS penetrable”. Also, the “synergy with EGFR inhibition in cell survival assays” value in data set [9] is listed as “synergizes with EGFR inhibition”. In addition, in [1] (25 mg/kg QD for 4 wks), the AUC is 27.3 mg·h/L and the Cmax is 22 µg/mL. Further, the “tumor growth / efficacy in orthotopic experiments” value in data set [11] is given as “no effect”. Moreover, in data set [2] (150 mg QD for 6 months), the AUC was 19700 ng·h/mL and the Cmax is 4830 ng/mL. Also, the “sensitization of cells to erlotinib, cell viability” value (“sensitization of cells to erlotinib” below) in [12] is given as “sensitizes”.

As for `Cc1ccccc1C(=O)N1CCc2cc(-c3nc(NC(=O)Cc4ccc5c(c4)OCO5)sc3C)ccc21` [ML385], in data set [12], the “sensitization of cells to erlotinib” value was “sensitizes”.

Regarding `O=C(O)c1cc(/N=N/c2ccc(S(=O)(=O)Nc3ccccn3)cc2)ccc1O` [sulfasalazine], the “synergy with EGFR inhibition in cell survival assays” value in [9] was “synergizes with EGFR inhibition”. For the same molecule, the “AUC of SASP” value in [1] (67.5 mg/kg QD for 3 wks, analyte SASP) is on record as “SASP: 21 μM * hr”. Moreover, in data set [1], the T½ was 0.9 h. Besides, in [2] (setting [13]), the AUC entry is recorded as “(122 μM * hr”, the Cmax is reported as 5351 ng/mL and the T½ is 9.8 h. The AUC in data set [2] (setting [14]) is given as 48,500 ng * hr/ml. For the same molecule, the “sensitization of cells to erlotinib” value in data set [12] is “sensitizes”.

As to etanercept, in [8] (setting [15]), the “block of the 40 NRF2 target genes induced by erlotinib” value is “could not be blocked” and the “upregulation of erlotinib induced genes blocked” value was 25%.

As usually defined, the AUC is the area under the concentration-time curve, a measure of exposure. As a reminder, the Cmax is the maximum level reached in the sampled fluid or tissue.
